{
  "source": "patent US20110059114A1",
  "about": "“Compositions and Methods for the Treatment of Radioresistant Glioma Stem Cells” (DUKE UNIVERSITY, priority 2009, published 2011)",
  "assay_type_in_all_cases": "cell-based, human",
  "key": {"Notch signaling": {"tested_on": "Notch signaling", "assay": "Notch-responsive luciferase reporter (RBP-Jκ reporter) assay", "conditions": "T4302 CD133+ cells; 2 μM DAPT or 0.5 μM L685,458 over night", "from_the_text": "(§1) FIG. 1 is a series of graphs illustrating that γ-secretase inhibitors reduce cell growth and clonogenic survival of glioma stem cells following radiation. (A) T4302 CD133+ glioma stem cells were transfected with a Notch-responsive luciferase reporter (RBP-JK reporter) pre-mixed with the vector directing constitutive expression of Renilla luciferase. Cells were left unirradiated or irradiated at 3 Gy, and were then collected to measure luciferase activities at time points as indicated. […] The relative mRNA levels of Hes2 were determined by quantitative real-time PCR at the time points as indicated. […] Total viable cell numbers were then determined by the CellTiter-Glo Luminescent Cell Viability Assay (Promega) for the following five days. […] Cells were then plated to form neurospheres, and the surviving fractions were determined as described in methods. […] (F,G) Neurosphere formation of T3359 and T4105 CD 133+ cells treated with GSIs alone, 3-Gy radiation alone, or the combination was determined as described in FIG. 1E. *: p<0.05 by Student's t-test; #: p<0.001 by one-way ANOVA.\nLuciferase assay. […] The luciferase activities were determined by the Dual-luciferase assay system (Promega)."}, "[1]": {"tested_on": "T4302 CD133+ glioma stem cells", "assay": "Growth curve, CellTiter-Glo Luminescent Cell Viability Assay", "conditions": "without radiation treatment, day five; 2 μM DAPT or 0.5 μM L685,458", "from_the_text": "as §1\nGrowth Curve, caspase 3/7 assay, and clonogenic survival assay. […] Cell number was measured for 5 days using the CellTiter-Glo assay kit (Promega, Madison, […].). […]"}, "T4302 CD133+ cells": {"tested_on": "T4302 CD133+ cells", "assay": "Annexin V staining, flow cytometry", "procedure": "FIG. 2 is a series of graphs illustrating that γ-secretase inhibitors enhance radiation-induced cell death in glioma stem cells. (A) T4302 CD 133+ cells were pre-treated with DAPT or L685,458 for 4 hours and irradiated at 3 Gy. Percentage of dead cells was determined by trypan blue exclusion assay at 48 hours after radiation exposure. (B) T4302 CD 133+ cells were treated with GSIs ±radiation as indicated. Cells were then plated at 3000 cells per well in 96-well plates. Relative caspase 3/7 activities were determined by normalizing caspase activities to the corresponding cell titers. (C) T4302 CD 133+ cells were treated as described in FIG. 2A. 24 or 48 hours after radiation exposure, cells were labeled with FITC-conjugated Annexin V staining kit (BD Sciences) according to manufacturer's instructions and analyzed by flow cytometry. (D) T4302 CD 133+ cells were pre-treated with 2 μM DAPT for 4 hours, and were left unirradiated or irradiated at 1, 2 or 3 Gy. Relative caspase 3/7 activities were determined at 72 hours after radiation. (E) T4302 CD133+ cells were pre-treated with DAPT at indicated concentrations for 4 hours and irradiated at 3 Gy. Relative caspase activities were determined at 48 or 72 hours after radiation. *: p<0.01 by Student's t-test; #: p<0.01 by one-way ANOVA."}},
  "data": [
    {"smiles": "CC(NC(=O)Cc1cc(F)cc(F)c1)C(=O)NC(C(=O)OC(C)(C)C)c1ccccc1", "note": "[DAPT, N-[N-(3,5-Difluorophenacetyl-L-alanyl)]-S-phenylglycine t-Butyl Ester]", "values": [
      {"measurement": "Notch signaling in glioma stem cells (Notch-responsive luciferase reporter)", "setting": "Notch signaling", "result": "blocked"},
      {"measurement": "sham-treated cells more than GSI-treated cells (total cell number)", "setting": "[1]", "result": 25, "unit": "%"},
      {"measurement": "Annexin V-positive labeled cells", "setting": "T4302 CD133+ cells; 24 hours following 3 Gy radiation", "result": "not obvious"},
      {"measurement": "Annexin V-positive labeled cells", "setting": "T4302 CD133+ cells; 48 hours following 3 Gy radiation", "result": "significantly increased"},
      {"measurement": "percentage of Annexin V-positive cells", "setting": "T4302 CD133+ cells; NICD2 expression", "result": "failed to increase"}
    ]}
  ]
}
